Results reported in ChEMBL document CHEMBL5380850, “Discovery of the First Raptor (Regulatory-Associated Protein of mTOR) Inhibitor as a New Type of Antiadipogenic Agent” (J Med Chem, 2023).
The source made the active and inactive calls. No cut-off for these calls is given here.

Assays:
[1] = system: 3T3-L1; assay: Anti-adipogenic activity against mouse 3T3-L1 cells assessed as downregulation of C/EBPalpha protein expression level at 0.1 to 1 uM incubated for 24 hrs by Western blot analysis; assay type: functional, cell-based; conditions: dose 0.1-1 µM
[2] = system: Mus musculus; assay: Anti-obesity activity in high fat diet-induced obese C57BL/6J mouse assessed as decrease in size of adipocytes in epididymis white adipose tissue at 40 mg/kg, ip administered every two days for 46 days by H and E staining based microscopy; assay type: functional, organism-based; conditions: time 46.0 day
[3] = molecular target: mTORC1 (Mus musculus) (UniProt Q9JLN9); assay: Inhibition of mTORC1 formation in mouse 3T3-L1 cells assessed as decrease in S6K1 expression level at 10 uM incubated for 24 hrs by Western blot analysis; assay type: cell-based
[4] = system: Mus musculus; assay: Anti-obesity activity in high fat diet-induced obese C57BL/6J mouse model assessed as reduction in hepatic steatosis by measuring lipid deposition at 40 mg/kg, ip administered every two days for 46 days; assay type: functional, organism-based; conditions: time 46.0 day
[5] = system: Mus musculus; assay: Anti-obesity activity in high fat diet-induced obese C57BL/6J mouse model assessed as increase in COX4 expression level in liver at 40 mg/kg, ip administered every two days for 46 days by immunohistochemical analysis; assay type: functional, organism-based; conditions: time 46.0 day
[6] = system: Mus musculus; assay: Anti-obesity activity in high fat diet-induced obese C57BL/6J mouse model assessed as reduction in plasma ALT level at 40 mg/kg, ip administered every two days for 46 days; assay type: functional, organism-based; conditions: time 46.0 day
[7] = molecular target: mTORC1 (Mus musculus) (UniProt Q9JLN9); assay: Inhibition of mTORC1 formation in mouse 3T3-L1 cells assessed as decrease in phosphorylated-S6K1 expression level at 10 uM incubated for 24 hrs by Western blot analysis; assay type: cell-based
[8] = molecular target: Regulatory-associated protein of mTOR (Mus musculus) (UniProt Q8K4Q0); assay: Binding affinity to Raptor in mouse 3T3-L1 cells assessed thermal stabilization at 10 uM incubated 30 mins by […] analysis
[9] = system: 3T3-L1; assay: Anti-adipogenic activity in SiRNA mediated Raptor knockdown mouse 3T3-L1 cells assessed as FAS expression level at 10 uM by Western blot analysis; assay type: functional, cell-based
[10] = system: Mus musculus; assay: In vivo inhibition of mTOR signalling in high fat diet-induced obese C57BL/6J mouse model assessed as decrease in mTOR phosphorylation at S2481 in inguen white adipose tissue at 40 mg/kg, ip administered every two days for 46 days by Western blot analysis; assay type: functional, organism-based; conditions: time 46.0 day
[11] = system: 3T3-L1; assay: Anti-adipogenic activity against mouse 3T3-L1 cells assessed as decrease in triglyceride level at 0.01 to 10 uM by Oil Red O staining based microscopic analysis; assay type: functional, cell-based; conditions: dose 0.01-10 µM
[12] = system: 3T3-L1; assay: Anti-adipogenic activity against mouse 3T3-L1 cells at adipogenesis stage assessed as decrease in triglyceride level at 1 uM and measured upto 3 days by Oil Red O staining based spectroscopic analysis; assay type: functional, cell-based; conditions: time <= 3.0 day
[13] = system: Mus musculus; assay: Anti-obesity activity in high fat diet-induced obese C57BL/6J mouse assessed as reduction in visceral fat content by measuring subcutis white adipose tissue weight at 40 mg/kg, ip administered every two days for 46 days; assay type: functional, organism-based; conditions: time 46.0 day
[14] = system: 3T3-L1; assay: Anti-adipogenic activity against mouse 3T3-L1 cells assessed as downregulation of C/EBPbeta protein expression level at 0.1 to 1 uM incubated for 24 hrs by Western blot analysis; assay type: functional, cell-based; conditions: dose 0.1-1 µM
[15] = system: 3T3-L1; assay: Anti-adipogenic activity against mouse 3T3-L1 cells assessed as downregulation of C/EBPdelta protein expression level at 0.1 to 1 uM incubated for 24 hrs by Western blot analysis; assay type: functional, cell-based; conditions: dose 0.1-1 µM
[16] = system: Mus musculus; assay: Anti-obesity activity in high fat diet-induced obese C57BL/6J mouse model assessed as increase in COX4 expression level in inguen white adipose tissue at 40 mg/kg, ip administered every two days for 46 days by immunohistochemical analysis; assay type: functional, organism-based; conditions: time 46.0 day
[17] = system: Mus musculus; assay: Anti-obesity activity in high fat diet-induced obese C57BL/6J mouse model assessed as reduction in triglyceride level at 40 mg/kg, ip administered every two days for 46 days; assay type: functional, organism-based; conditions: time 46.0 day
[18] = system: 3T3-L1; assay: Anti-adipogenic activity in siRNA-mediated LC3B knockdown mouse 3T3-L1 cells assessed as decrease in triglyceride level at 10 uM by Oil Red O staining based spectroscopic analysis; assay type: functional, cell-based
[19] = system: Mus musculus; assay: Anti-obesity activity in high fat diet-induced obese C57BL/6J mouse assessed as decrease in body weight at 40 mg/kg, ip administered every two days for 46 days (Rvb=52.5%); assay type: functional; design: scale not given: the % may be the effect or the level left; conditions: time 46 day
[20] = system: Mus musculus; assay: Anti-obesity activity in high fat diet-induced obese C57BL/6J mouse model assessed as reduction in plasma insulin level at 40 mg/kg, ip administered every two days for 46 days; assay type: functional, organism-based; conditions: time 46.0 day
[21] = system: Mus musculus; assay: Anti-obesity activity in high fat diet-induced obese C57BL/6J mouse model assessed as increase in PGC-1alpha expression level in liver at 40 mg/kg, ip administered every two days for 46 days by immunohistochemical analysis; assay type: functional, organism-based; conditions: time 46.0 day
[22] = Selectivity index, ratio of IC50 for cytotoxicity against mouse 3T3-L1 cells to EC50 for anti-adipogenic activity against mouse 3T3-L1 cells; assay type: cell-based; conditions: read-out: Ratio IC50/EC50
[23] = system: Mus musculus; assay: Anti-obesity activity in high fat diet-induced obese C57BL/6J mouse assessed as reduction in visceral fat content by measuring inguen white adipose tissue weight at 40 mg/kg, ip administered every two days for 46 days; assay type: functional, organism-based; conditions: time 46.0 day
[24] = system: 3T3-L1; assay: Anti-adipogenic activity in SiRNA mediated Raptor knockdown mouse 3T3-L1 cells assessed as ACC expression level at 10 uM by Western blot analysis; assay type: functional, cell-based
[25] = molecular target: Serine/threonine-protein kinase mTOR (Mus musculus) (UniProt Q9JLN9); assay: Inhibition of mTOR signalling in mouse 3T3-L1 cells assessed as […] of 4E-BP1 phosphorylation at 0.1 to 10 uM incubated for 24 hrs by Western blot analysis; assay type: cell-based; conditions: dose 0.1-10 µM
[26] = molecular target: Serine/threonine-protein kinase mTOR (Mus musculus) (UniProt Q9JLN9); assay: Inhibition of mTOR signalling in mouse 3T3-L1 cells assessed as upregulation of LC3II expression level at 0.1 to 10 uM incubated for 24 hrs by Western blot analysis; assay type: cell-based; conditions: dose 0.1-10 µM
[27] = system: 3T3-L1; assay: Anti-adipogenic activity against mouse 3T3-L1 cells assessed as downregulation of ACC mRNA expression level at 0.1 to 1 uM incubated for 6 days by RT-qPCR analysis; assay type: functional, cell-based; conditions: dose 0.1-1 µM, time 6.0 day
[28] = molecular target: Serine/threonine-protein kinase mTOR (Mus musculus) (UniProt Q9JLN9); assay: Inhibition of mTOR signalling in mouse 3T3-L1 cells assessed as upregulation of ATG3 expression level at 0.1 to 10 uM incubated for 24 hrs by Western blot analysis; assay type: cell-based; conditions: dose 0.1-10 µM
[29] = system: 3T3-L1; assay: Anti-adipogenic activity against mouse 3T3-L1 cells assessed as downregulation of ACC protein expression level at 0.1 to 1 uM incubated for 6 days by Western blot analysis; assay type: functional, cell-based; conditions: dose 0.1-1 µM, time 6.0 day
[30] = molecular target: mTORC1 (Mus musculus) (UniProt Q9JLN9); assay: Inhibition of mTORC1 formation in siRNA mediated Raptor knockdown mouse 3T3-L1 cells assessed as decrease in 4E-BP1 expression level at 10 uM incubated for 24 hrs by Western blot analysis; assay type: cell-based
[31] = system: 3T3-L1; assay: Anti-adipogenic activity against mouse 3T3-L1 cells assessed as downregulation of C/EBPalpha mRNA expression level at 0.1 to 1 uM incubated for 24 hrs by RT-qPCR analysis; assay type: functional, cell-based; conditions: dose 0.1-1 µM
[32] = system: 3T3-L1; assay: Anti-adipogenic activity in mouse 3T3-L1 cells assessed as increase in co-localization of lipid droplets and autophagolysosomes at 10 uM by Bodipy and LysoTracker staining based immunofluorescence analysis; assay type: functional, cell-based

Chain of Regulatory-associated protein of mTOR (Mus musculus) (Q8K4Q0 whole entry, looked up): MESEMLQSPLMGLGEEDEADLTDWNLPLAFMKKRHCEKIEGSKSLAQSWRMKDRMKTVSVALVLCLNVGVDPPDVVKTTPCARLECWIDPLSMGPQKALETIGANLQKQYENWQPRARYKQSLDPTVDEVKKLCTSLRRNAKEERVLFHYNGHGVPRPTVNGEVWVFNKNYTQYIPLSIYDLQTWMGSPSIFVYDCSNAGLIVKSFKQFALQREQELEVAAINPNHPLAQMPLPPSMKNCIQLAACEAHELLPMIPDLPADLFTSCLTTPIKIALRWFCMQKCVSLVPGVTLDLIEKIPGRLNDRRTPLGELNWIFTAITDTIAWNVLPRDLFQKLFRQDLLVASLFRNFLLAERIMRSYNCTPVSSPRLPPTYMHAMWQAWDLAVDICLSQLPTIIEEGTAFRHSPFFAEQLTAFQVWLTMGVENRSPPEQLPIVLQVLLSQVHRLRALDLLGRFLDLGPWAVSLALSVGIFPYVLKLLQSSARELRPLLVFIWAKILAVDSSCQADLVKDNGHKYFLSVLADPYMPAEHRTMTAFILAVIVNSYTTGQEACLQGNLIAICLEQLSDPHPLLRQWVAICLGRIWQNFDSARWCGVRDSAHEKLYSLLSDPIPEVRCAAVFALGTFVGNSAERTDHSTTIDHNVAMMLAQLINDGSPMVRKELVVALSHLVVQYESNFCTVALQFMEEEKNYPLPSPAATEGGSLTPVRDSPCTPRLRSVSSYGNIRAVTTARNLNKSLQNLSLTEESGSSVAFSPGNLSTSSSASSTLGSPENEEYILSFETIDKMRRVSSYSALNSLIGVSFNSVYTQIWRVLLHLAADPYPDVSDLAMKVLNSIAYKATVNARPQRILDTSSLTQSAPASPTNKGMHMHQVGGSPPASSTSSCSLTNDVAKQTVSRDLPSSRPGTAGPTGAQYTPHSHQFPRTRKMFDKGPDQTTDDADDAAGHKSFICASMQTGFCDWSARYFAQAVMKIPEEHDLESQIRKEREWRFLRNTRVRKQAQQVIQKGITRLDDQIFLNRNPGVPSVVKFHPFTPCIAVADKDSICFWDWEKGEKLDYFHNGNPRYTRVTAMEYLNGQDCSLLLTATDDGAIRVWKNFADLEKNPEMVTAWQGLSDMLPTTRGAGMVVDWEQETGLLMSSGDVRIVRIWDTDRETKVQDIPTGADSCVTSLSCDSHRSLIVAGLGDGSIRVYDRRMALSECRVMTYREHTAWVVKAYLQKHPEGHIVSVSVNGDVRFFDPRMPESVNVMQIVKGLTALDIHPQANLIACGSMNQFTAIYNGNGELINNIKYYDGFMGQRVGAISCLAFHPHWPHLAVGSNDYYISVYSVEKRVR

C=C(C)[C@@]12OC3(c4ccccc4)O[C@@H]1[C@@H]1[C@H](O)[C@](Cl)(COC(=O)c4ccccc4)[C@@H](O)[C@]4(O)C(=O)C(C)=C[C@H]4[C@@]1(O3)[C@H](C)[C@H]2OC(C)=O
Activity [1]: Active | Activity [2]: Active | inhibition [3]: Active | Activity [4]: Active | Activity [5]: Active | Activity [6]: Active | inhibition [7]: Active | Activity [8]: Active | Activity [9]: Active | inhibition [10]: Active | Activity [11]: Active | Activity [12]: inactive | Activity [13]: Active | Activity [14]: Active | Activity [15]: Active | Activity [16]: Active | Activity [17]: Active | Activity [18]: Active | Activity [19]: 26.8% | Activity [20]: Active | Activity [21]: Active | selectivity ratio [22]: > 1030 | Activity [23]: Active | Activity [24]: Active | inhibition [25]: Active | inhibition [26]: Active | Activity [27]: Active | inhibition [28]: Active | Activity [29]: Active | inhibition [30]: Active | Activity [31]: Active | Activity [32]: inactive
